Measured values reported in US4029799A, “Certain analgesically active substituted benzyl pyridine compounds” (Laboratorios Made, S.A., priority 1975, dated 1977).

How the values were obtained:
[1] = tested on: female albino I.C.R. Swiss mice; assay: Analgesic activity, Hot Plate Test at 55° C.; type: in vivo; conditions: for Jump-off time: 30 minutes after administration, average ± standard mean error, control 77 ± 9.272
Method: the analgesic activity of 2-(3,4,5-trimethoxybenzyl)-3,4-dimethylpyridine compound (I) was investigated in female albino I.C.R. Swiss mice weighing 24± 2 g. For this the Hot Plate Test was used at 55° C. 4 groups of mice each comprising 10 animals, were assembled. The distribution of the groups was according to the following scheme:-
Group 1-- Control - 0.2 ml of distilled H2 O
Group 2-- Compound I-0.2 ml of a solution of 2-(3,4,5-trimethoxybenzyl)-3,4-dimethylpyridine (I), 3 mg/ml.
Group 3-- Compound I-0.2 ml of a solution of 2-(3,4,5-trimethoxybenzyl)-3,4-dimethylpyridine (I), 6 mg/ml.
Group 4-- Dextropropoxyphene - 0.2 ml of a solution of dextropropoxyphene, 6 mg/ml.
The products were injected intraperitoneally, and the measurements of analgesia were made 30 minutes after the administration of the drugs. Note was taken of the time taken for an animal to jump off the hot plate.

I.C.R. Swiss mice = assay: Acute toxicity (i.p.), method of Lichfield and Wilcoxon; type: in vivo, both sexes
Method: (§1) acute toxicity studies were carried out in I.C.R. Swiss mice weighing 24± 2 g, of both sexes. The products were administered intraperitoneally (i.p.). Acute toxicity was calculated by the method of Lichfield and Wilcoxon.

[2] = as above; type: in vivo, I.C.R. Swiss mice, both sexes; conditions: mouse, in vivo, ip, mice, read-out: Lethal dose 50 (LD50)
Method: as §1

## COc1cc(Cc2nccc(C)c2C)cc(OC)c1OC [Compound I, 2-(3,4,5-trimethoxybenzyl)-3,4-dimethylpyridine]
[1]; 25 mg/kg i.p.
  Jump-off time: 77 ± 8.203 s
[1]; 25 mg/kg i.p., N.S. or p value
  Significance (jump-off time): N.S.
[1]; 50 mg/kg i.p.
  Jump-off time: 133.5 ± 12.581 s
[1]; for equal doses, Hot Plate Test
  analgesic activity compared with d-propoxyphene: more analgesic than d-propoxyphene
[1]; from analgesia and acute toxicity in mice
  therapeutic index compared with dextropropoxyphene: greater than that of dextropropoxyphene
I.C.R. Swiss mice
  toxicity compared with d-propoxyphene: less toxic
[2]
  LD50: 250 mg/kg

## CCC(=O)O[C@](Cc1ccccc1)(c1ccccc1)[C@H](C)CN(C)C [Dextropropoxyphene, reference compound]
[1]; 50 mg/kg i.p.
  Jump-off time: 102.4 ± 10.302 s
